The record followed here is patent US11498903B2 (BRISTOL-MYERS SQUIBB COMPANY, priority 2017, dated 2022).

The assay deals with T1, human APJ receptor (Homo sapiens, UniProt P35414).
T1 construct: expressed in transfected cells
T1 sequence (P35414 1-380): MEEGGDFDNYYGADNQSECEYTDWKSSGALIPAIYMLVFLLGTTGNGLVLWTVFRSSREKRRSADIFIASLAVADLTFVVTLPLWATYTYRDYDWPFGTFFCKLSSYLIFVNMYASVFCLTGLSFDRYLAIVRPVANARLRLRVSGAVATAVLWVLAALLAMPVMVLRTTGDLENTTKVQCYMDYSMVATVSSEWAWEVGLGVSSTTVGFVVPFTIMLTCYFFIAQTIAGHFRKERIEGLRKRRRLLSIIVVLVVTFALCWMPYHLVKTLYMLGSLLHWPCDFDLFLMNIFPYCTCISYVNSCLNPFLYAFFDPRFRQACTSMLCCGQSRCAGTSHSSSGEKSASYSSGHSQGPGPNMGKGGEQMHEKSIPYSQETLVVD
Briefly: Intracellular cAMP accumulation assay (APJ hcAMP, HTRF). The format is cell-based. Conditions: HEK293 cells stably expressing human APJ receptor. The procedure:
Intracellular cAMP Accumulation Assay
HEK293 cells stably expressing human APJ receptor were used to assess the activity of compounds. Cultured cells were detached and resuspended in the cAMP Homogeneous Time-Resolved Fluorescence (HTRF) assay buffer (Cisbio cat; #62AM4PEJ). The assay was performed in 384-well assay plates (Perkin-Elmer; cat #6008289) according to assay protocol provided by the manufacturer. Serial dilutions of a compound together with assay buffer containing […] IBMX and 2 μM forskolin were added to each well containing 5,000 cells and incubated for 30 minutes at room temperature. Subsequently, cAMP D2 reagent was added in the lysis buffer followed by the EuK antibody (Cisbio; cat #62AM4PEJ) and incubated for 60 min. The fluorescence emission ratio was measured using fluorometer. The intracellular cAMP concentrations (compound-stimulated inhibition of forskolin-mediated cAMP production) were calculated by extrapolation from a standard curve using known cAMP concentrations. The EC50 values were obtained by fitting the data to a sigmoidal concentration-response curve with variable slope. The maximal achievable inhibition of forskolin-induced cAMP levels (Ymax) for each compound was expressed as relative percentage of inhibition attained using pyroglutamated apelin-13 ((Pyrl)apelin-13) peptide, which was set to 100%.
The exemplified Examples disclosed below were tested in the APJ in vitro assays described above and were found having human APJ cyclic AMP (hcAMP) activity. Table 1 lists hcAMP EC50 values measured for the following examples. Ranges are as followε: A=0.0-10 nM; B=10.01-100 nM; C=101-500 nM.
Background: cAMP levels reflect the balance of adenylyl cyclase and phosphodiesterase activity.

[1] abbreviates: Table 1, inhibition of forskolin-mediated cAMP production, read-out: APJ hcAMP EC50.
The mark [2] stands for this setting: Table 3, read-out: APJ cAMP Human EC50.

Structures are written as SMILES. Like-named read-outs stand apart in the source and are kept apart here. Bounds are passed on as bounds.

Consider `CCC[C@@H](NC(=O)c1ccc(-c2c(Cl)cccc2-c2nc3ccccc3[nH]2)c(C(=O)O)c1)c1ccccc1` (atropisomer, axis not shown) [Example 81, (S)-2′-(1H-benzo[d]imidazol-2-yl)-6′-chloro-4-(((R)-1-phenylbutyl)carbamoyl)-[1,1′-biphenyl]-2-carboxylic acid], for which the EC50 (usually the midpoint of the concentration-response curve) is < 10 nM under setting [1] and < 10 nM under setting [2]. With `COC[C@@H](NC(=O)c1ccc(-c2c(Cl)cccc2-c2nc3ccccc3[nH]2)c(C(=O)O)c1)c1ccccc1` (atropisomer, axis not shown) [Example 82, (S)-2′-(1H-benzo[d]imidazol-2-yl)-6′-chloro-4-(((S)-2-methoxy-1-phenylethyl)carbamoyl)-[1,1′-biphenyl]-2-carboxylic acid], the EC50 under setting [2] was 10 to 100 nM.

Regarding `CCC[C@@H](NC(=O)c1ccc(-c2c(Cl)cccc2-c2nc3cc(OC)c(F)cc3[nH]2)c(C(=O)OC)c1)c1ccccc1` (atropisomer, axis not shown) [Example 83, methyl (S)-2′-chloro-6′-(6-fluoro-5-methoxy-1H-benzo[d]imidazol-2-yl)-4-(((R)-1-phenylbutyl)carbamoyl)-[1,1′-biphenyl]-2-carboxylate], under setting [2], the EC50 was in the range of 10 to 100 nM.

For `CCC[C@@H](NC(=O)c1ccc(-c2c(Cl)cccc2-c2nc3cc(Cl)c(F)cc3[nH]2)c(C(=O)O)c1)c1ccccc1` (atropisomer, axis not shown) [Example 85, (S)-2′-chloro-6′-(5-chloro-6-fluoro-1H-1,3-benzodiazol-2-yl)-4-{[(1R)-1-phenylbutyl]carbamoyl}-[1,1′-biphenyl]-2-carboxylic acid], the EC50 under setting [2] was < 10 nM. On to `CCC[C@@H](NC(=O)c1ccc(-c2c(Cl)cccc2-c2nc3cc(Cl)c(F)cc3[nH]2)c(C(=O)OC)c1)c1ccccc1` (atropisomer, axis not shown) [Example 86, (S)-methyl 2′-chloro-6′-(5-chloro-6-fluoro-1H-1,3-benzodiazol-2-yl)-4-{[(1R)-1-phenylbutyl]carbamoyl}-[1,1′-biphenyl]-2-carboxylate], for which, under setting [2], the EC50 is 101 to 500 nM.

For `CCC[C@@H](NC(=O)c1ccc(-c2c(Cl)cccc2-c2nc3cc(O)c(F)cc3[nH]2)c(C(=O)O)c1)c1ccccc1` (atropisomer, axis not shown) [Example 87, (S)-2′-chloro-6′-(6-fluoro-5-hydroxy-1H-1,3-benzodiazol-2-yl)-4-{[(1R)-1-phenylbutyl]carbamoyl}-[1,1′-biphenyl]-2-carboxylic acid], the EC50 reads like this: under setting [1], < 10 nM; under setting [2], < 10 nM. Consider `CCC[C@@H](NC(=O)c1ccc(-c2c(Cl)cccc2-c2nc3ccc(F)c(F)c3[nH]2)c(C(=O)O)c1)c1ccccc1` (atropisomer, axis not shown) [Example 88, (S)-2′-chloro-6′-(6,7-difluoro-1H-1,3-benzodiazol-2-yl)-4-{[(1R)-1-phenylbutyl]carbamoyl}-[1,1′-biphenyl]-2-carboxylic acid], for which, under setting [2], the EC50 was < 10 nM. Regarding `CCC[C@@H](NC(=O)c1ccc(-c2c(Cl)cccc2-c2nc3cc(F)c(F)cc3[nH]2)c(C(=O)O)c1)c1ccccc1` (atropisomer, axis not shown) [Example 89, (S)-2′-chloro-6′-(5,6-difluoro-1H-1,3-benzodiazol-2-yl)-4-{[(1R)-1-phenylbutyl]carbamoyl}-[1,1′-biphenyl]-2-carboxylic acid], the EC50 is < 10 nM under setting [1] and < 10 nM under setting [2]. Regarding `CCC[C@@H](NC(=O)c1ccc(-c2c(Cl)cccc2-c2nc3cc(F)cc(F)c3[nH]2)c(C(=O)O)c1)c1ccccc1` (atropisomer, axis not shown) [Example 90, (S)-2′-chloro-6′-(5,7-difluoro-1H-1,3-benzodiazol-2-yl)-4-{[(1R)-1-phenylbutyl]carbamoyl}-[1,1′-biphenyl]-2-carboxylic acid], the EC50 is, setting by setting: under setting [1], < 10 nM; under setting [2], < 10 nM. As for `CCC[C@@H](NC(=O)c1ccc(-c2c(Cl)cccc2-c2nc3cccc(O)c3[nH]2)c(C(=O)O)c1)c1ccccc1` (atropisomer, axis not shown) [Example 92, (S)-2′-chloro-6′-(7-hydroxy-1H-1,3-benzodiazol-2-yl)-4-{[(1R)-1-phenlylbutyl]carbamoyl}-[1,1′-biphenyl]-2-carboxylic acid], the EC50 under setting [1] was < 10 nM and the EC50 under setting [2] is < 10 nM. For `CCC[C@@H](NC(=O)c1ccc(-c2c(Cl)cccc2-c2nc3cc(Cl)cc(Cl)c3[nH]2)c(C(=O)O)c1)c1ccccc1` (atropisomer, axis not shown) [Example 94, (S)-2′-chloro-6′-(5,7-dichloro-1H-1,3-benzodiazol-2-yl)-4-{[(1R)-1-phenylbutyl]carbamoyl}-[1,1′-biphenyl]-2-carboxylic acid], the EC50 is, setting by setting: under setting [1], < 10 nM; under setting [2], < 10 nM. `CCC[C@@H](NC(=O)c1ccc(-c2c(Cl)cccc2-c2nc3cc(Cl)cc(C)c3[nH]2)c(C(=O)O)c1)c1ccccc1` (atropisomer, axis not shown) [Example 95, (S)-2′-chloro-6′-(5-chloro-7-methyl-1H-1,3-benzodiazol-2-yl)-4-{[(1R)-1-phenylbutyl]carbamoyl}-[1,1′-biphenyl]-2-carboxylic acid]: the EC50 reads like this: under setting [1], < 10 nM; under setting [2], < 10 nM. Regarding `CCC[C@@H](NC(=O)c1ccc(-c2c(Cl)cccc2-c2nc3cc(F)cc(F)c3[nH]2)c(C(=O)O)c1)c1ccccc1` (atropisomer, axis not shown) [Example 96, (S)-2′-chloro-6′-(5,7-difluoro-1H-1,3-benzodiazol-2-yl)-4-{[(1R)-1-phenylbutyl]carbamoyl}-[1,1′-biphenyl]-2-carboxylic acid], under setting [1], the EC50 is < 10 nM. Turning to `CCC[C@@H](NC(=O)c1ccc(-c2c(Cl)cccc2-c2nc3cc(Cl)c(C)cc3[nH]2)c(C(=O)O)c1)c1ccccc1` (atropisomer, axis not shown) [Example 97, (S)-2′-chloro-6′-(5-chloro-6-methyl-1H-1,3-benzodiazol-2-yl)-4-{[(1R)-1-phenylbutyl]carbamoyl}-[1,1′-biphenyl]-2-carboxylic acid], the EC50 under setting [2] was 10 to 100 nM. As for `CCC[C@@H](NC(=O)c1ccc(-c2c(Cl)cccc2-c2nc3c(OC)ccc(OC)c3[nH]2)c(C(=O)O)c1)c1ccccc1` (atropisomer, axis not shown) [Example 98, (S)-2′-chloro-6′-(4,7-dimethoxy-1H-1,3-benzodiazol-2-yl)-4-{[(1R)-1-phenylbutyl]carbamoyl}-[1,1′-biphenyl]-2-carboxylic acid], the EC50 under setting [2] was 10 to 100 nM.

On to `CCC[C@@H](NC(=O)c1ccc(-c2c(Cl)cccc2-c2nc3cccc(O)c3[nH]2)c(C(=O)O)c1)c1ccccc1` (atropisomer, axis not shown) [Example 99, (S)-2′-chloro-6′-(7-hydroxy-1H-1,3-benzodiazol-2-yl)-4-{[(1R)-1-phenylbutyl]carbamoyl}-[1,1′-biphenyl]-2-carboxylic acid], for which the EC50 runs as follows: under setting [1], 10 to 100 nM; under setting [2], 10 to 100 nM. Take `CCC[C@@H](NC(=O)c1ccc(-c2c(Cl)cccc2-c2ncc(-c3ccccc3)[nH]2)c(C(=O)O)c1)c1ccccc1` (atropisomer, axis not shown) [Example 102, (S)-2′-chloro-6′-(5-phenyl-1H-imidazol-2-yl)-4-{[(1R)-1-phenylbutyl]carbamoyl}-[1,1′-biphenyl]-2-carboxylic acid]: the EC50 by setting is: under setting [1], < 10 nM; under setting [2], < 10 nM. For the compound `CCC[C@@H](NC(=O)c1ccc(-c2c(Cl)cccc2-c2ncc(-c3cccc(OC)c3)[nH]2)c(C(=O)O)c1)c1ccccc1` (atropisomer, axis not shown) [Example 103, (S)-2′-chloro-6′-[5-(3-methoxyphenyl)-1H-imidazol-2-yl]-4-{[(1R)-1-phenylbutyl]carbamoyl}-[1,1′-biphenyl]-2-carboxylic acid], the EC50 is < 10 nM under setting [1] and < 10 nM under setting [2]. For `CCC[C@@H](NC(=O)c1ccc(-c2c(Cl)cccc2-c2ncc(-c3ccc(C)c(F)c3)[nH]2)c(C(=O)O)c1)c1ccccc1` (atropisomer, axis not shown) [Example 104, (S)-2′-chloro-6′-[5-(3-fluoro-4-methylphenyl)-1H-imidazol-2-yl]-4-{[(1R)-1-phenylbutyl]carbamoyl}-[1,1′-biphenyl]-2-carboxylic acid], the EC50 reads like this: under setting [1], < 10 nM; under setting [2], < 10 nM.
